Several values for one entry are separate records, joined by “and”; a condition that tells them apart may be missing. Equal entries are not always repeated.
Key:
[1] = molecular target: T1, Plasminogen (Homo sapiens, UniProt P00747); experiment: Compound was tested for the rate constant of acylation against the enzyme plasmin
[2] = molecular target: T1, Plasminogen; experiment: Compound was tested for the rate constant for deacylation against plasmin; kd was too fast to measure
[3] = molecular target: T1, Plasminogen; experiment: Compound was tested for its binding affinity against the enzyme plasmin
[4] = molecular target: T2, Prothrombin (Homo sapiens, UniProt P00734); experiment: Compound was tested for the rate constant of acylation against the enzyme thrombin
[5] = molecular target: T2, Prothrombin; experiment: Compound was tested for the rate constant of deacylation against thrombin
[6] = molecular target: T2, Prothrombin; experiment: Compound was tested for its binding affinity against the enzyme thrombin
[7] = molecular target: T3, Urokinase-type plasminogen activator (Homo sapiens, UniProt P00749); experiment: Compound was tested for the rate constant of deacylation against the enzyme Urokinase-type plasminogen activator
[8] = molecular target: T3, Urokinase-type plasminogen activator; experiment: Compound was tested for its binding affinity against the enzyme Urokinase-type plasminogen activator
[9] = molecular target: T3, Urokinase-type plasminogen activator
Description: Compound was tested for the rate constant of acylation against the enzyme Urokinase-type plasminogen activator

[10] = molecular target: T3, Urokinase-type plasminogen activator; experiment: Compound was tested for the rate constant of deacylation against Urokinase-type plasminogen activator
[11] = molecular target: T4, Chymotrypsinogen A (Bos taurus, UniProt P00766); experiment: Compound was tested for the rate constant of deacylation against alpha-chymotrypsin; kd was too fast to measure
[12] = molecular target: T4, Chymotrypsinogen A; experiment: Compound was tested for its binding affinity against the enzyme alpha-chymotrypsin
[13] = molecular target: T5, Serine protease 1 (Bos taurus, UniProt P00760); experiment: Compound was tested for its binding affinity against the enzyme trypsin
T5 sequence (P00760 whole entry): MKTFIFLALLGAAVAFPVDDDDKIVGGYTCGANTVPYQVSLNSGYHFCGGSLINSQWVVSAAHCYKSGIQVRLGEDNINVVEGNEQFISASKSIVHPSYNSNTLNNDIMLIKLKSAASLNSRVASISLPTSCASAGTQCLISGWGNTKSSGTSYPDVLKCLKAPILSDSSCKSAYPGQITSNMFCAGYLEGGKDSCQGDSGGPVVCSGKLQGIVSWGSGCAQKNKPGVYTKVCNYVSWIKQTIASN

[14] = molecular target: T5, Serine protease 1; experiment: Compound was tested for the rate constant of deacylation against the enzyme trypsin
[15] = molecular target: T6, Trypsin II (Bos taurus) (UniProt Q29463); experiment: Compound was tested for the rate constant of acylation against the enzyme trypsin
T6 sequence (whole entry): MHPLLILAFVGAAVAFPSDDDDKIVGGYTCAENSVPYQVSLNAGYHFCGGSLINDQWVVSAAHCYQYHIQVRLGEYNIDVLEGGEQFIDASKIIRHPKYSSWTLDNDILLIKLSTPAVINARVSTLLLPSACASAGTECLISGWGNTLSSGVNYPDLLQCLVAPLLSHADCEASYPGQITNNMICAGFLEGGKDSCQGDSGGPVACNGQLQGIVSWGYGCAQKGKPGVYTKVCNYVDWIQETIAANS

[16] = molecular target: T3, Urokinase-type plasminogen activator; experiment: Compound was tested for the rate constant of deacylation against Urokinase-type plasminogen activator
[17] = molecular target: T3, Urokinase-type plasminogen activator; experiment: Compound was tested for the rate constant of deacylation against the enzyme Urokinase-type plasminogen activator; kd was too fast to measure
[18] = molecular target: T7, Serine protease 1 (Bos taurus) (UniProt P00760)
T7 sequence (whole entry): T5 sequence (P00760 whole entry)

[19] = molecular target: Tissue-type plasminogen activator (Homo sapiens, UniProt P00750); experiment: Compound was tested for its binding affinity against the enzyme Tissue plasminogen activator
Tissue-type plasminogen activator, sequence (P00750 whole entry): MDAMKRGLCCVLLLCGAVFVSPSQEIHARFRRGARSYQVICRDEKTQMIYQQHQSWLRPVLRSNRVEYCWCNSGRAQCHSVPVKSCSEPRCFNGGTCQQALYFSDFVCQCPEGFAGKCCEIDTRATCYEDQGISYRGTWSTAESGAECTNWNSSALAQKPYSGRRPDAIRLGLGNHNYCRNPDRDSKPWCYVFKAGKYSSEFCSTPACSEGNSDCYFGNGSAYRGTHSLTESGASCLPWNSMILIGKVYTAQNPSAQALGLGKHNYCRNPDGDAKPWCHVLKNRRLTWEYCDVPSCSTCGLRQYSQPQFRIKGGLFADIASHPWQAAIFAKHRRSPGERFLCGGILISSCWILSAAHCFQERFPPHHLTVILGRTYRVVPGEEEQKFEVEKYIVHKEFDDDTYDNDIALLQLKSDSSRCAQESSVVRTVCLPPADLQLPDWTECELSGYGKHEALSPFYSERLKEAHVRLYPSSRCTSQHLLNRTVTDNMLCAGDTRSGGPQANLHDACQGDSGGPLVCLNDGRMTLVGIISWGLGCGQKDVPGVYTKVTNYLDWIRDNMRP

T1 sequence (P00747 97-580 limits assumed): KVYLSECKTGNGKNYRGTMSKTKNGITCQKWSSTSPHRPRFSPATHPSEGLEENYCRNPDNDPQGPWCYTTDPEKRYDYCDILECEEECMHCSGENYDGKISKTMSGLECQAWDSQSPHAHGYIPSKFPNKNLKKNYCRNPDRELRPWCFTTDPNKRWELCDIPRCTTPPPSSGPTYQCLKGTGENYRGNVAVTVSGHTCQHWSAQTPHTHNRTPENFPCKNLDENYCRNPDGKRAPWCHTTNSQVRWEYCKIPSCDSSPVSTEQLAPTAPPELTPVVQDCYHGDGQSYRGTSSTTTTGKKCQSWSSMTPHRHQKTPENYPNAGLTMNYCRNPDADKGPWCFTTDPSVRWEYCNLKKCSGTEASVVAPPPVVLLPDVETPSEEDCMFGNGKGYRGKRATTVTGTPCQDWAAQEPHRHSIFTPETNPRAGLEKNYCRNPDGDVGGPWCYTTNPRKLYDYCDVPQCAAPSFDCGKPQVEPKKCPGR
T1 sequence (P00747 581-810 limits assumed): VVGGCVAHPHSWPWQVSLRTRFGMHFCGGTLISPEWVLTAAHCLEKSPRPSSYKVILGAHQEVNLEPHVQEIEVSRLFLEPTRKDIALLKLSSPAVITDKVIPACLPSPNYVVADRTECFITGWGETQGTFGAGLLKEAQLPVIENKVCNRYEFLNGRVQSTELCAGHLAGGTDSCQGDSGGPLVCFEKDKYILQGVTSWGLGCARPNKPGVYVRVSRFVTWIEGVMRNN

Row | Structure (SMILES) | Ka [1] | Ki [3] | Ka [4] | Kd [5] | Ki [6] | Kd [7] | Ki [8] | Ka [9] | Kd [10] | Ki [12] | Ki [13] | Kd [14] | Ka [18] | other results
1 | C=C1CCC(c2ccc(CNC(=N)N)cc2)C(=O)O1 (centres undefined) | 57 min⁻¹ | 466000 nM | 5.58 min⁻¹ | 0.0001 s⁻¹ | 37900 nM | 0.000733 s⁻¹ | 350 nM | 9.8 min⁻¹ | – | – | – | – | – | Kd [2]: Fast
2 | C=C1CC(c2ccc(NC(=N)N)cc2)C(NC(=O)c2ccccc2)C(=O)O1 (centres undefined) | – | – | – | – | – | – | – | – | 3.3e-05 s⁻¹ | 460 nM | 10000 nM | 0.00025 s⁻¹ | – | Kd [11]: Fast; Ka [15]: 10.2 min⁻¹
3 | C=C1CC(c2ccc(NC(=N)N)cc2)CC(=O)O1 (centres undefined) | – | – | – | – | – | – | 120 nM | – | 0.00015 s⁻¹ | – | 9400 nM | 3.3e-05 s⁻¹ | – | –
4 | N=C(N)Nc1ccc(C2C/C(=C/I)OC(=O)C2NC(=O)c2ccccc2)cc1 (centres undefined) | – | – | – | – | – | 1.33e-05 s⁻¹ | 18700 nM | – | – | 170 nM | 670 nM and 2760 nM | – | – | Kd [16]: 1.3e-05 s⁻¹
5 | N=C(N)Nc1ccc(C2CC(=O)O/C(=C\I)C2)cc1 (centres undefined) | – | – | – | – | – | – | 7830 nM | 2.61 min⁻¹ | – | – | 4280 nM | 0.00033 s⁻¹ | 0.54 min⁻¹ | Kd [17]: Fast
6 | N=C(N)NCc1ccc(C2CC/C(=C/I)OC2=O)cc1 (centres undefined) | 10.2 min⁻¹ | 1190 nM | 27.2 min⁻¹ | 0.000217 s⁻¹ | 14800 nM | – | – | 7.56 min⁻¹ | – | – | 80 nM | – | 18.4 min⁻¹ | Ki [19]: 120 nM

Source: ChEMBL document CHEMBL1125358, “Effect of conformational mobility and hydrogen-bonding interactions on the selectivity of some guanidinoaryl-substituted mechanism-based inhibitors of trypsin-like serine proteases” (J Med Chem, 1992)
